Measurements published in ChEMBL document CHEMBL3045925 (Med Chem Res, 2013).
≈ marks a conversion by molar mass, not a printed value. Calls of active or inactive are those of the source. No cut-off for these calls is given here.

What was measured:
[1] = system: Radical scavenging activity; assay: Antioxidant activity assessed as DPPH free radical scavenging activity at 500 ug/mL after 30 min by spectrophotometric analysis; type: functional
[2] = Antioxidant activity assessed as reduction of Fe3+ to Fe2+ measured Fe2+ equivalent per gram dry mass after 4 min by spectrophotometric analysis; type: functional
[3] = system: Radical scavenging activity; assay: Antioxidant activity assessed as DPPH free radical scavenging activity at 250 ug/mL after 30 min by spectrophotometric analysis; type: functional
[4] = system: Radical scavenging activity; assay: Antioxidant activity assessed as DPPH free radical scavenging activity at 1000 ug/mL after 30 min by spectrophotometric analysis; type: functional
[5] = Antioxidant activity assessed as reduction of Cu2+ to Cu+ at 125 to 1000 ug/mL after 30 min by spectrophotometric analysis; type: functional
[6] = system: Radical scavenging activity; assay: Antioxidant activity assessed as DPPH free radical scavenging activity at 125 ug/mL after 30 min by spectrophotometric analysis; type: functional
Candida albicans = assay: Antifungal activity against Candida albicans MTCC 227 assessed as growth inhibition after 48 to 72 hr by two-fold serial dilution method; type: functional
Botrytis cinerea = assay: Antifungal activity against Botryotinia fuckeliana assessed as growth inhibition after 48 to 72 hr by two-fold serial dilution method; type: functional
Scopulariopsis = assay: Antifungal activity against Scopulariopsis sp. 101/01 assessed as growth inhibition after 48 to 72 hr by two-fold serial dilution method; type: functional
Aspergillus flavus = assay: Antifungal activity against Aspergillus flavus assessed as growth inhibition after 48 to 72 hr by two-fold serial dilution method; type: functional
Malassezia pachydermatis = assay: Antifungal activity against Malassezia pachydermatis assessed as growth inhibition after 48 to 72 hr by two-fold serial dilution method; type: functional
[7] = system: Trichophyton mentagrophytes; assay: Antifungal activity against Trichophyton mentagrophytes 66/01 assessed as growth inhibition after 48 to 72 hr by two-fold serial dilution method; type: functional
Trichophyton rubrum = assay: Antifungal activity against Trichophyton rubrum 57/01 assessed as growth inhibition after 48 to 72 hr by two-fold serial dilution method; type: functional
Staphylococcus aureus [8] = assay: Antibacterial activity against methicillin-resistant Staphylococcus aureus clinical isolate assessed as growth inhibition after 24 hr by two-fold serial dilution method; type: functional
Klebsiella pneumoniae [9] = assay: Antibacterial activity against Klebsiella pneumoniae ESBL 75799 clinical isolate assessed as growth inhibition after 24 hr by two-fold serial dilution method; type: functional; details: ESBL 75799, 24 h
Salmonella typhimurium = assay: Antibacterial activity against Salmonella enterica subsp. enterica serovar Typhimurium MTCC 1251 assessed as growth inhibition after 24 hr by two-fold serial dilution method; type: functional; details: MTCC 1251, 24 h
Shigella flexneri = assay: Antibacterial activity against Shigella flexneri MTCC 1457 assessed as growth inhibition after 24 hr by two-fold serial dilution method; type: functional; details: MTCC 1457, 24 h
[10] = system: Staphylococcus epidermidis; assay: Antibacterial activity against Staphylococcus epidermidis MTCC 3615 assessed as growth inhibition after 24 hr by two-fold serial dilution method; type: functional; details: MTCC 3615, 24 h
Klebsiella pneumoniae [11] = assay: Antibacterial activity against Klebsiella pneumoniae ESBL 3894 clinical isolate assessed as growth inhibition after 24 hr by two-fold serial dilution method; type: functional; details: ESBL 3894, 24 h
Bacillus subtilis = assay: Antibacterial activity against Bacillus subtilis MTCC 441 assessed as growth inhibition after 24 hr by two-fold serial dilution method; type: functional; details: MTCC 441, 24 h
Staphylococcus aureus [12] = assay: Antibacterial activity against Staphylococcus aureus MTCC 96 assessed as growth inhibition after 24 hr by two-fold serial dilution method; type: functional; details: MTCC 96, 24 h
[13] = system: Salmonella enterica subsp. enterica serovar Paratyphi B; assay: Antibacterial activity against Salmonella enterica subsp. enterica serovar Paratyphi B assessed as growth inhibition after 24 hr by two-fold serial dilution method; type: functional
Klebsiella pneumoniae [14] = assay: Antibacterial activity against Klebsiella pneumoniae ESBL 3967 clinical isolate assessed as growth inhibition after 24 hr by two-fold serial dilution method; type: functional; details: ESBL 3967, 24 h
Escherichia coli [15] = assay: Antibacterial activity against Escherichia coli ESBL 3984 clinical isolate assessed as growth inhibition after 24 hr by two-fold serial dilution method; type: functional; details: ESBL 3984, 24 h
Pseudomonas aeruginosa = assay: Antibacterial activity against Pseudomonas aeruginosa MTCC 741 assessed as growth inhibition after 24 hr by two-fold serial dilution method; type: functional; details: MTCC 741, 24 h
Micrococcus luteus = assay: Antibacterial activity against Micrococcus luteus assessed as growth inhibition after 24 hr by two-fold serial dilution method; type: functional
Klebsiella pneumoniae [16] = assay: Antibacterial activity against Klebsiella pneumoniae ESBL 3971 clinical isolate assessed as growth inhibition after 24 hr by two-fold serial dilution method; type: functional; details: ESBL 3971, 24 h
Escherichia coli [17] = assay: Antibacterial activity against Escherichia coli ESBL 3904 clinical isolate assessed as growth inhibition after 24 hr by two-fold serial dilution method; type: functional; details: ESBL 3904, 24 h
COLO 320 [18] = assay: Cytotoxicity against Homo sapiens (human) COLO320 cells at 25 ug/mL by MTT assay; type: functional
[19] = Antioxidant activity assessed as reduction of Cu2+ to Cu+ after 30 min by spectrophotometric analysis; type: functional
COLO 320 [20] = assay: Cytotoxicity against Homo sapiens (human) COLO320 cells at 50 ug/mL by MTT assay; type: functional
COLO 320 [21] = assay: Cytotoxicity against Homo sapiens (human) COLO320 cells at 200 ug/mL by MTT assay; type: functional
COLO 320 [22] = assay: Cytotoxicity against Homo sapiens (human) COLO320 cells by MTT assay
COLO 320 [23] = assay: Cytotoxicity against Homo sapiens (human) COLO320 cells at 100 ug/mL by MTT assay; type: functional
COLO 320 [24] = assay: Cytotoxicity against Homo sapiens (human) COLO320 cells at 10 ug/mL by MTT assay; type: functional

Cc1cc(C(C)(C)C)c(O)c(C(C)(C)C)c1
Activity [1]: 80.9%
Activity [2]: 2.21 mMequiv
Activity [3]: 71.7%
Activity [4]: 90.1%
Activity [5]: Active
Activity [6]: 60.9%

CC(=O)N1CCN(c2ccc(OCC3COC(Cn4ccnc4)(c4ccc(Cl)cc4Cl)O3)cc2)CC1 (configuration not stated) [KETOCONAZOLE]
MIC (Candida albicans): 25 µg/mL (≈ 47 µM)
MIC (Botrytis cinerea): < 12.5 µg/mL
MIC (Scopulariopsis): < 12.5 µg/mL
MIC (Aspergillus flavus): < 12.5 µg/mL
MIC (Malassezia pachydermatis): 12.5 µg/mL (≈ 23.5 µM)
MIC [7]: < 12.5 µg/mL
MIC (Trichophyton rubrum): < 12.5 µg/mL

CN[C@@H]1[C@H](O[C@H]2[C@H](O[C@H]3[C@H](O)[C@@H](O)[C@H](N=C(N)N)[C@@H](O)[C@@H]3N=C(N)N)O[C@@H](C)[C@]2(O)C=O)O[C@@H](CO)[C@H](O)[C@H]1O [STREPTOMYCIN]
MIC (Staphylococcus aureus [8]): 6.25 µg/mL (≈ 10.7 µM)
MIC (Klebsiella pneumoniae [9]): 25 µg/mL (≈ 43 µM)
MIC (Salmonella typhimurium): 30 µg/mL (≈ 51.6 µM)
MIC (Shigella flexneri): 6.25 µg/mL (≈ 10.7 µM)
MIC [10]: 25 µg/mL (≈ 43 µM)
MIC (Klebsiella pneumoniae [11]): 6.25 µg/mL (≈ 10.7 µM)
MIC (Bacillus subtilis): 25 µg/mL (≈ 43 µM)
MIC (Staphylococcus aureus [12]): 6.25 µg/mL (≈ 10.7 µM)
MIC [13]: inactive
MIC (Klebsiella pneumoniae [14]): 25 µg/mL (≈ 43 µM)
MIC (Escherichia coli [15]): 25 µg/mL (≈ 43 µM)
MIC (Pseudomonas aeruginosa): 25 µg/mL (≈ 43 µM)
MIC (Micrococcus luteus): 6.25 µg/mL (≈ 10.7 µM)
MIC (Klebsiella pneumoniae [16]): 6.25 µg/mL (≈ 10.7 µM)
MIC (Escherichia coli [17]): 25 µg/mL (≈ 43 µM)

COc1cc(/C=C/C(=O)NCCCCNC(=O)/C=C/c2ccc(O)c(OC)c2)ccc1O [TERRESTRIBISAMIDE]
MIC (Candida albicans): 200 µg/mL (≈ 454 µM)
Activity (COLO 320 [18]): 21.609%
MIC (Staphylococcus aureus [8]): > 200 µg/mL
Activity [1]: 84.6%
MIC (Klebsiella pneumoniae [9]): > 200 µg/mL
Activity [2]: 0.808 mMequiv
MIC (Botrytis cinerea): > 200 µg/mL
MIC (Salmonella typhimurium): > 200 µg/mL
MIC (Shigella flexneri): > 200 µg/mL
Activity [19]: Dose-dependent effect
Activity [3]: 68.3%
MIC [10]: 200 µg/mL (≈ 454 µM)
Activity (COLO 320 [20]): 51.195%
MIC (Scopulariopsis): > 200 µg/mL
MIC (Aspergillus flavus): > 200 µg/mL
MIC (Klebsiella pneumoniae [11]): > 200 µg/mL
Activity (COLO 320 [21]): 83.218%
MIC (Bacillus subtilis): 200 µg/mL (≈ 454 µM)
MIC (Staphylococcus aureus [12]): > 200 µg/mL
MIC [13]: > 200 µg/mL
MIC (Klebsiella pneumoniae [14]): > 200 µg/mL
MIC (Malassezia pachydermatis): 200 µg/mL (≈ 454 µM)
IC50 (COLO 320 [22]): 50 µg/mL (≈ 114 µM)
MIC [7]: > 200 µg/mL
MIC (Escherichia coli [15]): 200 µg/mL (≈ 454 µM)
Activity (COLO 320 [23]): 64.827%
MIC (Pseudomonas aeruginosa): > 200 µg/mL
Activity [4]: 88.3%
MIC (Micrococcus luteus): 200 µg/mL (≈ 454 µM)
MIC (Klebsiella pneumoniae [16]): > 200 µg/mL
Activity (COLO 320 [24]): 9.655%
Activity [6]: 40.2%
MIC (Trichophyton rubrum): > 200 µg/mL
MIC (Escherichia coli [17]): 200 µg/mL (≈ 454 µM)
